This is an account of results in EP4768487A1, “FUSED LACTAM RING COMPOUND AND USE THEREOF” (Chengdu Zenitar Biomedical Technology Co., Ltd., priority 2023, dated 2025).

Test [1] concerns BRCA wild-type DLD-1 cells. Put plainly: Anti-proliferative activity against cells (CCK8): DLD-1. Type of test: cell-based. The following applies: Homo sapiens, 72 h + 96 h culture. The method, then: BRCA wild-type DLD-1 cells were cultured in an RPMI-1640 medium containing 10% fetal bovine serum, 100 U/mL penicillin, and 100 µg/mL streptomycin, and incubated in an incubator with 5% saturated CO2 at 37 °C. When the cells grew to 80% confluence, they were collected, centrifuged at 300 g for 10 min, and then plated onto a 96-well plate at 1000 cells/well. After 24 h, different final concentrations (0 µM, 1 µM, and 10 µM) of PARPi were added, and the cells were cultured for another 72 h. The cells were subjected to medium exchange treatment (re-supplemented with PARPi at the same final concentrations) and then cultured for another 96 h. The 96-well plate was taken out.

Test [2] addresses T1, PARP1 (Homo sapiens, UniProt P09874).
T1 construct: purchased BPS 80501
Put plainly: PARP1 enzyme assay (histone-coated plate, chemiluminescence). Type of test: biochemical. The note with it: PARP1 0.02 nM, DNA 0.8 nM, NAD+ 3.5 µM; read-out: PARP-1 IC50. On the procedure:
1.1.1. Buffer preparation: PBST: 1× PBS, 0.05% Tween-20; blocking buffer: 1× PBS, 0.05% Tween-20, 5% BSA; reaction buffer: 50 mM Tris-HCl (pH 7.5), 0.005% Tween-20, 0.01% BSA.
1.1.2. Coating: A 50 ng/mL Histone coating solution was prepared with 1× PBS and then transferred to a 384-well reaction plate at 25 µL/well. The plate was coated at 4 °C overnight.
1.1.3. Washing: After the coating was completed, the coating solution was discarded, and the plate was washed with the PBST solution. The method was as follows: PBST was transferred to the 384-well reaction plate at 50 µL/well, and the plate was left to stand for 5 min. The washing solution was then discarded, and the plate was refilled. The washing step was repeated 3 times. Finally, the reaction plate was patted dry and left for the next step of blocking.
1.1.4. Blocking: The blocking buffer was transferred to the 384-well reaction plate at 50 µL/well, and the plate was left to stand for 1 h.
Washing: After the blocking was completed, the blocking buffer was discarded, and the plate was washed 3 times with the PBST solution according to the method in step 2. Finally, the reaction plate was patted dry.
1.1.5. A 1000-fold solution of a compound was prepared and then transferred at 1 µL/well to a 96-well plate containing 199 µL of the reaction buffer. The mixture was well mixed, and then the well mixed compound solution was transferred to the 384-well reaction plate at 5 µL/well. 1.1.6. A 25/10-fold PARP1-DNA solution was prepared with the reaction buffer and then transferred to the 384-well reaction plate at 10 µL/well. For the negative control wells, 10 µL
of the DNA solution was transferred. The final concentrations of PARP1 and DNA were 0.02 nM and 0.8 nM, respectively.
1.1.9. Washing: After the reaction was completed, the reaction solution was discarded, and the plate was washed 3 times with the PBST solution according to the method in step 2. Finally, the reaction plate was patted dry.
1.1.10. A primary antibody (anti-Poly/Mono-ADP Ribose Rabbit mAb) was diluted 2000-fold with the blocking buffer and then added at 20 µL/well.
1.1.11. Washing: The primary antibody was discarded, and the plate was washed 3 times with the PBST solution according to the method in step 2. Finally, the reaction plate was patted dry.
1.1.12. A secondary antibody (anti-rabbit IgG, HRP-linked Antibody) was diluted 2000-fold with the blocking buffer and then added at 20 µL/well.
1.1.13. Washing: The secondary antibody was discarded, and the plate was washed 3 times with the PBST solution according to the method in step 2. Finally, the reaction plate was patted dry.
1.1.14. Color development: Femto-ECL Substrate A and Femto-ECL Substrate B were mixed at a ratio of 1:1, and the mixture was transferred to the 384-well reaction plate at 25 µL/well. 1.1.15. Reading: The chemiluminescence values (RLU) were measured using Envision.

Test [3] deals with BRCA-mutated MDA-MB-436 cells. Put plainly: Anti-proliferative activity against cells (CCK8): MDA-MB-436. Type of test: cell-based. The following applies: Homo sapiens, 72 h + 96 h culture.

pIC50: −log10 of the molar value. Bounds are passed on as bounds.

T1 sequence (P09874 whole entry): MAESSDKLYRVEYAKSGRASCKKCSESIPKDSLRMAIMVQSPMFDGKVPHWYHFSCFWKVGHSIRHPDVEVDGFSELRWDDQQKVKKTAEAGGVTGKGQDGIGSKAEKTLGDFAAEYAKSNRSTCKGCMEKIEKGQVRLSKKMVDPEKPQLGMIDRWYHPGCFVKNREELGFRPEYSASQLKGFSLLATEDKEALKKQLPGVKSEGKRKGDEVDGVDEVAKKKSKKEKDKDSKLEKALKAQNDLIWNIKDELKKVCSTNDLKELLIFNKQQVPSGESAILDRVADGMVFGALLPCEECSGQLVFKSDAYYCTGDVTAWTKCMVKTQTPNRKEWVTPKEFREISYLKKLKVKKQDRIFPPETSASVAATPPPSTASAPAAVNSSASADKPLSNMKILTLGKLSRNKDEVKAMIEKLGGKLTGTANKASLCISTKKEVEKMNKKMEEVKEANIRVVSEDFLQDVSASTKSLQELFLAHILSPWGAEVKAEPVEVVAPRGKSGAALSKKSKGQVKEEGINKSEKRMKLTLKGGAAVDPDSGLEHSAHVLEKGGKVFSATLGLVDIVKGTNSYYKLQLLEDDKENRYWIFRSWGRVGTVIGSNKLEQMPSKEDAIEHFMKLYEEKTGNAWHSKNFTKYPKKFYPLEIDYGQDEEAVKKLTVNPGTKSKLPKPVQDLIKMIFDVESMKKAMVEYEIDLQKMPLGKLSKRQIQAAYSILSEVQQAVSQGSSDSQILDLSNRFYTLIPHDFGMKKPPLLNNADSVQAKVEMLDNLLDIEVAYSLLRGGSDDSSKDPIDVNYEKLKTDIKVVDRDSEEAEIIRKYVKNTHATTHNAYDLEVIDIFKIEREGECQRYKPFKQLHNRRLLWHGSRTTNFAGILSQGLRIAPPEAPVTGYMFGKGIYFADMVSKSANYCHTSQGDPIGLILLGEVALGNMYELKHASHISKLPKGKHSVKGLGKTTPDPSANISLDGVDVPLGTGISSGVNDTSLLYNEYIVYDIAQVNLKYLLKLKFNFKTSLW

In the case of `CNC(=O)c1ccc(C2CCN(CC3Cc4[nH]c(=O)c(C)cc4CO3)CC2)c(F)n1` (stereo not drawn) [Example 59, 6-Fluoro-N-methyl-5-(1-((3-methyl-2-oxo-1,5,7,8-tetrahydro-2H-pyrano[4,3-b]pyridin-7-yl)methyl)piperidin-4-yl)picolinamide], the values for the pIC50 in test [1], in test [2] and in test [3] were less than 6.00, 6.30 to 7.30 and 6.52, respectively.
With `CNC(=O)c1ccc2c(n1)COC[C@H]1CN(CC3Cc4[nH]c(=O)c(C)cc4CO3)CCN21` (stereo partly drawn) [Example 92, (4aR)-N-Methyl-3-((3-methyl-2-oxo-1,5,7,8-tetrahydro-2H-pyrano[4,3-b]pyridin-7-yl)methyl) -1,2,3,4,4a,5-hexahydro-7H-pyrazino[2,1-c]pyrido[3,2-e][1,4]oxazolidine-9-carboxamide], the pIC50 was less than 6.00 in test [1] and no less than 7.30 in test [2].
Consider `CCc1cc2c([nH]c1=O)CC(CN1CCN(c3ccc(C(=O)NCC(F)F)nc3F)CC1)OC2` (stereo not drawn) [Example 49, N-(2,2-Difluoroethyl)-5-(4-((3-ethyl-2-oxo-1,5,7,8-tetrahydro-2H-pyrano[4,3-b]pyridin-7-yl)methyl)piperazin-1-yl)-6-fluoropicolinamide], for which the results for the negative-log IC50 (pIC50) in test [1], in test [2] and in test [3] were less than 6.00, no less than 7.30 and 6.52, respectively.
`CCc1cc2c([nH]c1=O)CC(CN1CCN(c3ccc(C(=O)NC)nc3)CC1)OC2` (stereo not drawn) [Compound 1, 5-(4-((3-Ethyl-2-oxo-1,5,7,8-tetrahydro-2H-pyrano[4,3-b]pyridin-7-yl)methyl)piperazin-1-yl) -N-methylpicolinamide]: the pIC50 in test [1] is less than 6.00; in test [2], no less than 7.30; in test [3], 6.52.
With `CNC(=O)c1ccc(N2CCN(CC3COc4cc(Cl)c(=O)[nH]c4C3)CC2)c(F)n1` (stereo not drawn) [Example 86, 5-(4-((7-Chloro-6-oxo-3,4,5,6-tetrahydro-2H-pyrano[3,2-b]pyridin-3-yl)methyl)piperazin-1-yl)-6-fluoro-N-methylpicolinamide], the negative-log IC50 (pIC50) in test [1] is less than 6.00; in test [2], 6.30 to 7.30.
With `CNC(=O)c1ccc(C2=CCN(C[C@H]3CCc4nc(C)c(=O)[nH]c4C3)CC2)c(F)n1` [Example 46, (S)-2-Fluoro-N-methyl-1'-((2-methyl-3-oxo-3,4,5,6,7,8-hexahydroquinoxalin-6-yl)methyl)-1', 2',3',6'-tetrahydro-[3,4'-bipyridine]-6-carboxamide], the pIC50 in test [1] is less than 6.00; in test [2], no less than 7.30; in test [3] it was 8.17.
For `CNC(=O)c1ccc(C2=CCN(CC3Cc4[nH]c(=O)c(C(F)F)cc4CO3)CC2)c(F)n1` (stereo not drawn) [Example 52, 1'-((3-(Difluoromethyl)-2-oxo-1,5,7,8-tetrahydro-2H-pyrano[4,3-b]pyridin-7-yl)methyl)-2-flu oro-N-methyl-1',2',3',6'-tetrahydro-[3,4'-bipyridine]-6-carboxamide] the same measures were less than 6.00, 6.30 to 7.30 and 6.70.
Consider `CCc1cc2c([nH]c1=O)C[C@H](CN1CCN(c3ccc(C(=O)NC)nc3F)CC1)OC2` [Example 66, (R)-5-(4-((3-ethyl-2-oxo-1,5,7,8-tetrahydro-2H-pyrano[4,3-b]pyridin-7-yl)methyl)piperazin-1-yl)-6-fluoro-N-methylpicolinamide], for which the pIC50 in test [1] was less than 6.00; in test [3], 8.35.
As to `CNC(=O)c1ccc(C2=CCN(C[C@H]3CCc4nc(C5CC5)c(=O)[nH]c4C3)CC2)c(F)n1` [Example 56, (S)-1'-((2-Cyclopropyl-3-oxo-3,4,5,6,7,8-hexahydroquinoxaline-6-yl)methyl)-2-fluoro-N-met hyl-1',2',3',6'-tetrahydro-[3,4'-bipyridine]-6-carboxamide], the figures for the pIC50 in test [1] and in test [2] were less than 6.00 and no less than 7.30, respectively.
Turning to `CNC(=O)c1ccc(N2CCN(C(C)[C@H]3CCc4nc(C)c(=O)[nH]c4C3)CC2)c(F)n1` (stereo partly drawn) [Example 71, (S)-6-Fluoro-N-methyl-5-(4-(1-(2-methyl-3-oxo-3,4,5,6,7,8-hexahydroquinoxalin-6-yl)ethyl)piperazin-1-yl)picolinamide], the pIC50 in test [1] is less than 6.00; in test [2], no less than 7.30.
As to `[2H]C([2H])([2H])NC(=O)c1ccc(N2CCN(C([2H])([2H])[C@H]3CCc4nc(C)c(=O)[nH]c4C3)CC2)c(F)n1` [Example 84, (S)-6-Fluoro-N-(methyl-d3)-5-(4-((2-methyl-3-oxo-3,4,5,6,7,8-hexahydroquinoxalin-6-yl)methyl-d2)piperazin-1-yl)picolinamide], in test [1], the negative-log IC50 (pIC50) is less than 6.00.
For `CCc1nc2c([nH]c1=O)C[C@@H](CN1CCN(c3ccc(C(=O)NC)nc3F)CC1)CC2` [Example 48, (S)-5-(4-((2-Ethyl-3-oxo-3,4,5,6,7,8-hexahydroquinoxalin-6-yl)methyl)piperazin-1-yl)-6-fluor o-N-methylpicolinamide], the negative logarithm of the IC50 (pIC50) in test [1] was less than 6.00; in test [2], no less than 7.30.
Take `CNC(=O)c1ccc(N2CCN(C[C@H]3CCc4nc(C5CC5)c(=O)[nH]c4C3)CC2)c(F)n1` [Example 57, (S)-5-(4-((2-Cyclopropyl-3-oxo-3,4,5,6,7,8-hexahydroquinoxaline-6-yl)methyl)piperazin-1-yl)-6-fluoro-N-methylpicolinamide]: the values for the negative-log IC50 (pIC50) in test [1] and in test [2] were less than 6.00 and no less than 7.30, respectively.
Consider `CNC(=O)c1ccc(N2CCN(CC3Cc4[nH]c(=O)c(SC)cc4CO3)CC2)c(F)n1` (stereo not drawn) [Example 96, 6-Fluoro-N-methyl-5-(4-((3-(methylthio)-2-oxo-1,5,7,8-tetrahydro-2H-pyrano[4,3-b]pyridin-7-yl)methyl)piperazin-1-yl)picolinamide], for which the negative logarithm of the IC50 (pIC50) in test [1] is less than 6.00; in test [2] it was no less than 7.30.
With `CNC(=O)c1ccc(N2CCN(CC3Cc4[nH]c(=O)c(C5CC5)cc4CO3)CC2)c(F)n1` (stereo not drawn) [Example 42, 5-(4-((3-Cyclopropyl-2-oxo-1,5,7,8-tetrahydro-2H-pyrano[4,3-b]pyridin-7-yl)methyl)piperazin-1-yl)-6-fluoro-N-methylpicolinamide], the pIC50 in test [1] is less than 6.00; in test [2], 6.30 to 7.30.
Consider `COC1CC(NC(=O)c2ccc(N3CCN(CC4Cc5[nH]c(=O)c(C)cc5CO4)CC3)c(F)n2)C1` (stereo not drawn) [Example 79, 6-Fluoro-N-(3-methoxycyclobutyl)-5-(4-((3-methyl-2-oxo-1,5,7,8-tetrahydro-2H-pyrano[4,3-b]pyridin-7-yl)methyl)piperazin-1-yl)picolinamide], for which the negative-log IC50 (pIC50) in test [1] is less than 6.00; in test [3], 6.89.
For `CCc1cc2c([nH]c1=O)C[C@@H](CN1CCN(c3ccc(C(=O)NC)nc3F)CC1)OC2` [Example 65, (S)-5-(4-((3-Ethyl-2-oxo-1,5,7,8-tetrahydro-2H-pyrano[4,3-b]pyridin-7-yl)methyl)piperazin-1-yl)-6-fluoro-N-methylpicolinamide] the same measures were less than 6.00 and 9.15.
Turning to `CNC(=O)c1ccc(N2CCN(CC3Cc4[nH]c(=O)c(Br)cc4CO3)CC2)c(F)n1` (stereo not drawn) [Example 40, 5-(4-((3-Bromo-2-oxo-1,5,7,8-tetrahydro-2H-pyrano[4,3-b]pyridin-7-yl)methyl)piperazin-1-yl)-6-fluoro-N-methylpicolinamide], the negative-log IC50 (pIC50) in test [1] is less than 6.00; in test [2] it was no less than 7.30.
On to `CNC(=O)c1ccc(C2CCN(C[C@H]3CCc4nc(C)c(=O)[nH]c4C3)CC2)c(F)n1` [Example 80, (S)-6-Fluoro-N-methyl-5-(1-((2-methyl-3-oxo-3,4,5,6,7,8-hexahydroquinoxalin-6-yl)methyl)piperidin-4-yl)picolinamide], for which the pIC50 was less than 6.00 in test [1] and 6.52 in test [3].
